Measured values: the NIST ThermoML archive (doi:10.1016/j.jct.2015.02.024)
Numbers after ± are expanded uncertainties.

Assays:
[1] = for viscosity / mass density: 101.33 kPa, Liquid; for viscosity: Falling or rolling sphere viscometry; for mass density: Vibrating tube method
[2] = activity coefficient (dimensionless); of the first substance listed, at infinite dilution; xn = mol fraction of the nth substance listed; settings: 101 kPa, Liquid, Chromatography, x1 = 0

Row | Compound | activity coefficient ([2]; 318.15 K) | activity coefficient ([2]; 328.15 K) | activity coefficient ([2]; 338.15 K) | activity coefficient ([2]; 348.15 K) | activity coefficient ([2]; 358.15 K) | activity coefficient ([2]; 368.15 K) | further results
1 | C[N+]1(CCCO)CCOCC1.O=S(=O)([N-]S(=O)(=O)C(F)(F)F)C(F)(F)F | – | – | – | – | – | – | viscosity ([1]; 298.15 K): 1183 ± 130 mPa·s; mass density ([1]; 298.15 K): 1536.09 ± 4.6 kg/m3; viscosity ([1]; 308.15 K): 565.7 ± 47 mPa·s; mass density ([1]; 308.15 K): 1527.32 ± 4.6 kg/m3; viscosity ([1]; 318.15 K): 280.7 ± 17 mPa·s; mass density ([1]; 318.15 K): 1518.74 ± 4.5 kg/m3; viscosity ([1]; 328.15 K): 156.1 ± 6.8 mPa·s; mass density ([1]; 328.15 K): 1510.14 ± 4.5 kg/m3; viscosity ([1]; 338.15 K): 94.49 ± 3 mPa·s; mass density ([1]; 338.15 K): 1501.59 ± 4.4 kg/m3; viscosity ([1]; 348.15 K): 61.14 ± 1.6 mPa·s; mass density ([1]; 348.15 K): 1493.08 ± 4.4 kg/m3; viscosity ([1]; 358.15 K): 37.79 ± 1 mPa·s; mass density ([1]; 358.15 K): 1484.63 ± 4.3 kg/m3; viscosity ([1]; 368.15 K): 27.09 ± 0.71 mPa·s; mass density ([1]; 368.15 K): 1476.24 ± 4.3 kg/m3; Normal melting temperature ([1]; Crystal, DTA): 14 ± 0.4 °C; Glass transition temperature ([1]; Glass, DTA): -52.5 ± 0.4 °C
2 | C=CCCCCCC [oct-1-ene] + C[N+]1(CCCO)CCOCC1.O=S(=O)([N-]S(=O)(=O)C(F)(F)F)C(F)(F)F | 133 ± 9 | 117 ± 8 | 106 ± 7 | 94.6 ± 6.5 | 85.2 ± 5.8 | 77.2 ± 5.3 | –
3 | CCCCCCCC [octane] + C[N+]1(CCCO)CCOCC1.O=S(=O)([N-]S(=O)(=O)C(F)(F)F)C(F)(F)F | 315 ± 22 | 265 ± 18 | 230 ± 16 | 199 ± 14 | 172 ± 12 | 152 ± 10 | –
4 | CCCC(C)=O [pentan-2-one] + C[N+]1(CCCO)CCOCC1.O=S(=O)([N-]S(=O)(=O)C(F)(F)F)C(F)(F)F | 1.24 ± 0.08 | 1.29 ± 0.08 | 1.34 ± 0.09 | 1.4 ± 0.09 | 1.44 ± 0.09 | 1.48 ± 0.1 | –
5 | CCC(=O)CC [pentan-3-one] + C[N+]1(CCCO)CCOCC1.O=S(=O)([N-]S(=O)(=O)C(F)(F)F)C(F)(F)F | 1.28 ± 0.08 | 1.33 ± 0.09 | 1.4 ± 0.09 | 1.45 ± 0.1 | 1.52 ± 0.1 | 1.57 ± 0.1 | –
6 | CCCO [propan-1-ol] + C[N+]1(CCCO)CCOCC1.O=S(=O)([N-]S(=O)(=O)C(F)(F)F)C(F)(F)F | 2.06 ± 0.14 | 2.01 ± 0.14 | 1.96 ± 0.13 | 1.92 ± 0.13 | 1.88 ± 0.13 | 1.84 ± 0.12 | –
7 | CC(C)O [propan-2-ol] + C[N+]1(CCCO)CCOCC1.O=S(=O)([N-]S(=O)(=O)C(F)(F)F)C(F)(F)F | 1.83 ± 0.12 | 1.78 ± 0.12 | 1.74 ± 0.12 | 1.71 ± 0.11 | 1.67 ± 0.11 | 1.64 ± 0.11 | –
8 | c1ccncc1 [pyridine] + C[N+]1(CCCO)CCOCC1.O=S(=O)([N-]S(=O)(=O)C(F)(F)F)C(F)(F)F | 0.414 ± 0.034 | 0.461 ± 0.036 | 0.501 ± 0.038 | 0.55 ± 0.04 | 0.593 ± 0.042 | 0.639 ± 0.044 | –
9 | C=Cc1ccccc1 [styrene] + C[N+]1(CCCO)CCOCC1.O=S(=O)([N-]S(=O)(=O)C(F)(F)F)C(F)(F)F | 3.45 ± 0.23 | 3.51 ± 0.24 | 3.58 ± 0.24 | 3.66 ± 0.25 | 3.72 ± 0.25 | 3.78 ± 0.26 | –
10 | C1CCOC1 [tetrahydrofuran] + C[N+]1(CCCO)CCOCC1.O=S(=O)([N-]S(=O)(=O)C(F)(F)F)C(F)(F)F | 0.968 ± 0.061 | 1.03 ± 0.06 | 1.08 ± 0.07 | 1.12 ± 0.07 | 1.18 ± 0.08 | 1.23 ± 0.08 | –
11 | c1ccsc1 [thiophene] + C[N+]1(CCCO)CCOCC1.O=S(=O)([N-]S(=O)(=O)C(F)(F)F)C(F)(F)F | 1.89 ± 0.13 | 1.92 ± 0.13 | 1.95 ± 0.13 | 1.98 ± 0.13 | 2 ± 0.14 | 2.03 ± 0.14 | –
12 | Cc1ccccc1 [toluene] + C[N+]1(CCCO)CCOCC1.O=S(=O)([N-]S(=O)(=O)C(F)(F)F)C(F)(F)F | 4.03 ± 0.27 | 4.08 ± 0.28 | 4.11 ± 0.28 | 4.16 ± 0.28 | 4.19 ± 0.29 | 4.22 ± 0.29 | –
13 | C=COC(C)=O [vinyl acetate] + C[N+]1(CCCO)CCOCC1.O=S(=O)([N-]S(=O)(=O)C(F)(F)F)C(F)(F)F | 1.87 ± 0.13 | 1.91 ± 0.13 | 1.94 ± 0.13 | 1.98 ± 0.13 | 2 ± 0.14 | 2.03 ± 0.14 | –
14 | O [water] + C[N+]1(CCCO)CCOCC1.O=S(=O)([N-]S(=O)(=O)C(F)(F)F)C(F)(F)F | 1.43 ± 0.09 | 1.36 ± 0.09 | 1.28 ± 0.08 | 1.21 ± 0.08 | 1.15 ± 0.07 | 1.1 ± 0.07 | –
